Assay: Photochromic response of imbibed diethylene glycol bis(allyl carbonate) polymer test squares on an optical bench
Assay type: physicochemical
Settings: for Δ OD @ SATURATION: UV exposure continued for 20 minutes; for BLEACH RATE T 1/2: time for absorbance of activated form to reach one half the highest absorbance at 25.7 ± 0.5 °C after removal of activating light
Method: Comparative testing was conducted on the principle product of Example 3 and certain photochromic compounds described in U.S. Patents 4,342,668 and 4,637,698. These compounds were imbibed by thermal transfer into test squares of a polymeric matrix prepared from a diethylene glycol bis(allyl carbonate) composition by the following procedure: Each photochromic compound was dissolved in toluene to form a 4 weight percent solution of the compound. A piece of No. 4 Whatman filter paper was saturated with the toluene solution of the photochromic compound and allowed to air dry. The dried filter paper was placed on one side of the polymer test square, which measured 1/8 inch (0.3 centimeter) x 2 inch (5.1 centimeters) x 2 inch (5.1 centimeters). A piece of untreated filter paper was placed on the other side of the polymer test square and the resulting sandwich placed between two plates of flat aluminum metal plates. The entire assembly was then placed in a 155°C. oven for a time sufficient to thermally transfer the photochromic compound into the polymer test square. […] The imbibed test squares were washed with acetone after removal from the oven.
The imbibed polymer test squares were tested for photochromic response rates on an optical bench. The samples were illuminated by a 150 watt Xenon lamp fitted with a copper sulfate bath and a neutral density filter at an intensity of about one sun. A second beam of light provided by a filtered tungsten lamp arranged to pass through the sample area exposed by the UV source was used to monitor changes in transmission of the sample over different wavelength ranges in the visible region of the spectrum. The intensity of the monitoring beam after passing through the sample was measured by means of an IL-1500 radiometer equipped with a silicon detector head and matching filters.
The Δ OD/min., which represents the sensitivity of the photochromic compound's response to UV light, was measured using photopic filters on the silicon detector. The response of the filtered detector approximated the luminosity curve. The Δ OD was measured over the first five (5) seconds of UV exposure, then expressed on a per minute basis. The saturation optical density (OD) was taken under identical conditions as the Δ OD/min., except UV exposure was continued for 20 minutes. The lambda max reported in Table 2 is the wavelength in the ultraviolet range closest to the visible spectrum or in the threshold range, i.e., 390 to 410 nanometers, of the visible spectrum at which the maximum absorption and activation of the photochromic compound occurs in the polymer matrix test squares.
The bleach rate T 1/2(sec.) is the time interval in seconds for the absorbance of the activated form of the photochromic compounds in the test polymer to reach one half the highest absorbance at 25.7 ± 0.5 °C. after removal of the source of activating light.

Compound	Δ OD @ SATURATION	BLEACH RATE T 1/2
1-propyl-3,3,4,5(or 3,3,5,6)-tetramethyl-9'-methoxycarbonyl-8'-acetoxy-spiro[indoline-2,3'-[3H]naphth[2,1-b]-[1,4]oxazine]	0.42	2.27 min
1-propyl-3,3,4,5(or 3,3,5,6)-tetramethyl-spiro[indoline-2,3'-[3H]naphth[2,1-b][1,4]oxazine]	0.11	0.783 min
CCCN1c2cc(C)c(C)cc2C(C)(C)C12C=Nc1c(ccc3ccc(OC)cc13)O2 (centres unmarked) [A, 1-propyl-3,3,5,6-tetramethyl-9'-methoxy-spiro[indoline-2,3'-[3H]naphth[2,1-b][1,4]oxazine]]	0.11	1.17 min
CCCN1c2cc(C)c(C)cc2C(C)(C)C12C=Nc1c(ccc3ncccc13)O2 (centres unmarked) [B, 1-propyl-3,3,5,6-tetramethyl-spiro[indoline-2,3'-[3H]pyrido-[3,2-f][1,4]benzoxazine]]	0.36	1.15 min

Reference: patent publication EP0785936B1, “PHOTOCHROMIC NAPHTHOXAZINE COMPOUNDS” (PPG Industries Ohio, Inc., priority 1994, dated 1996)
